From PubChem BioAssay AID1845216 (Molecular Pharmacology Branch, DTP, NCI, 2023)
pIC50: −log10 of the molar value.

System: SW 982 tumor spheroid viability
Test: Anticancer human tumor SW 982 cell line growth inhibition;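 note: spheroids exposed to compound for 7 days before readout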
Details: spheroids with HUVEC and MSC; for pIC50: curve of first compound; for viability, T/C: stronger effect = lower value
Procedure, shortened: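 Single agents and combinations were tested on spheroids built from tumor cells plus HUVEC and hMSC, at half-log dilutions starting at or near clinical Cmax, else 10 microM; final DMSO 0.25% (v/v).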

[1] = second compound 0.003 µM, first compound 0.0316 µM
[2] = second compound 0.003 µM, first compound 0.1 µM
[3] = second compound 0.003 µM, first compound 0.316 µM
[4] = second compound 0.003 µM, first compound 1 µM
[5] = second compound 0.003 µM, first compound 3.16 µM
[6] = second compound 0.003 µM, first compound 10 µM
[7] = second compound 0.00949 µM, first compound 0.0316 µM
[8] = second compound 0.00949 µM, first compound 0.1 µM
[9] = second compound 0.00949 µM, first compound 0.316 µM
[10] = second compound 0.00949 µM, first compound 1 µM
[11] = second compound 0.00949 µM, first compound 3.16 µM
[12] = second compound 0.00949 µM, first compound 10 µM
[13] = second compound 0.03 µM, first compound 0.0316 µM
[14] = second compound 0.03 µM, first compound 0.1 µM
[15] = second compound 0.03 µM, first compound 0.316 µM
[16] = second compound 0.03 µM, first compound 1 µM
[17] = second compound 0.03 µM, first compound 3.16 µM
[18] = second compound 0.03 µM, first compound 10 µM
[19] = second compound 0.0949 µM, first compound 0.0316 µM
[20] = second compound 0.0949 µM, first compound 0.1 µM
[21] = second compound 0.0949 µM, first compound 0.316 µM
[22] = second compound 0.0949 µM, first compound 1 µM
[23] = second compound 0.0949 µM, first compound 3.16 µM
[24] = second compound 0.0949 µM, first compound 10 µM
[25] = second compound 0.3 µM, first compound 0.0316 µM
[26] = second compound 0.3 µM, first compound 0.1 µM
[27] = second compound 0.3 µM, first compound 0.316 µM
[28] = second compound 0.3 µM, first compound 1 µM
[29] = second compound 0.3 µM, first compound 3.16 µM
[30] = second compound 0.3 µM, first compound 10 µM

SMILES	pIC50 (second compound 0.003 µM)	pIC50 (second compound 0.00949 µM)	pIC50 (second compound 0.03 µM)	pIC50 (second compound 0.0949 µM)	pIC50 (second compound 0.3 µM)	viability, T/C [1]	viability, T/C [2]	viability, T/C [3]	viability, T/C [4]	viability, T/C [5]	viability, T/C [6]	viability, T/C [7]	viability, T/C [8]	viability, T/C [9]	viability, T/C [10]	viability, T/C [11]	viability, T/C [12]	viability, T/C [13]	viability, T/C [14]	viability, T/C [15]	also measured
CC1COCCN1c1cc(-c2ccnn2C)c2ccnc(-c3ccn[nH]3)c2n1 (stereo not given) + CC[C@@]1(O)C(=O)OCc2c1cc1n(c2=O)Cc2cc3c(CN(C)C)c(O)ccc3nc2-1	> 7.50	> 7.50	> 7.50	> 7.50	> 7.50	24.8%	17.2%	12.2%	7.73%	9.86%	13.6%	16.3%	14.9%	10.3%	8.21%	9.89%	12.6%	18.2%	10.3%	8.15%	viability, T/C [16]: 7.1%; viability, T/C [17]: 10.2%; viability, T/C [18]: 13.3%; viability, T/C [19]: 12.1%; viability, T/C [20]: 11.4%; viability, T/C [21]: 9.49%; viability, T/C [22]: 8.79%; viability, T/C [23]: 9.28%; viability, T/C [24]: 12%; viability, T/C [25]: 12.1%; viability, T/C [26]: 8.63%; viability, T/C [27]: 7.14%; viability, T/C [28]: 6.54%; viability, T/C [29]: 7.28%; viability, T/C [30]: 7.84%
COc1cc(C)[nH]c(=O)c1CN1CCc2c(Cl)cc(C(OC)C3COC3)c(Cl)c2C1=O (stereo not given) + CC[C@@]1(O)C(=O)OCc2c1cc1n(c2=O)Cc2cc3c(CN(C)C)c(O)ccc3nc2-1	< 5.00	< 5.00	< 5.00	< 5.00	> 7.50	87.8%	81.4%	90.5%	89.8%	87.8%	90.4%	74.8%	77.3%	75.1%	79.4%	82.7%	83%	77.7%	66.8%	70.8%	viability, T/C [16]: 75.8%; viability, T/C [17]: 69%; viability, T/C [18]: 72.5%; viability, T/C [19]: 58.2%; viability, T/C [20]: 56%; viability, T/C [21]: 65%; viability, T/C [22]: 63%; viability, T/C [23]: 66%; viability, T/C [24]: 76.5%; viability, T/C [25]: 49.4%; viability, T/C [26]: 47.2%; viability, T/C [27]: 42.9%; viability, T/C [28]: 41.2%; viability, T/C [29]: 48.2%; viability, T/C [30]: 52.4%
[2H]c1nc(C)nc([2H])c1-c1cc(NC[C@@H](C)c2cccc3c(C(=O)NC)ccnc23)ncn1 + CC[C@@]1(O)C(=O)OCc2c1cc1n(c2=O)Cc2cc3c(CN(C)C)c(O)ccc3nc2-1	< 5.00	< 5.00	< 5.00	< 5.00	< 5.00	90.1%	97.5%	103%	104%	101%	101%	89.1%	89.4%	89.2%	95.2%	82.1%	78%	77.4%	78%	83.7%	viability, T/C [16]: 84.8%; viability, T/C [17]: 95.4%; viability, T/C [18]: 81.8%; viability, T/C [19]: 69.7%; viability, T/C [20]: 72.5%; viability, T/C [21]: 76.5%; viability, T/C [22]: 70.9%; viability, T/C [23]: 84.5%; viability, T/C [24]: 73.5%; viability, T/C [25]: 58.2%; viability, T/C [26]: 55.4%; viability, T/C [27]: 54.3%; viability, T/C [28]: 62.5%; viability, T/C [29]: 45.1%; viability, T/C [30]: 52.1%
